Data from patent publication US20080155704A1, “Methods and Compositions for Determining in vivo Activity of BiP” (King's College London, priority 2006, published 2008).

Assays:
IL-8 = IL-8 production by dendritic cells (cytometric bead array); format: cell-based, human; conditions: iDC and mDC, BiP 20 μg/ml, 7d culture (FIG. 7)
Excerpt: In a series of experiments IL-8 was detected using cytometric bead array (Becton Dickinson) where the mean fluorescence intensity (MFI) is proportional to the concentration of cytokine.

[1] = test system: human peripheral blood mononuclear cells; test: Human PBMC injected intraperitoneally into SCID mice; format: in vivo, human cells in SCID mice
Protocol: Human peripheral blood mononuclear cells (50.106/mouse), either with concomitant BiP (100 μg/mouse) or with PBS/vehicle, were injected into the peritoneal cavity of SCID mice. After 11d the cells were flushed from the peritoneal cavity and investigated by flow cytometry. (A) Intracellular expression of IL-4 was measured 3 h post ex vivo stimulation with PMA (10 ng/ml) and ionomycin (1 μg/ml) in the presence of monensin. (B) surface expression of HLA-DR CD4+ cells. The mean and standard deviation of 3 experiments are shown
(§1) The biomarkers were investigated in two situations: 1) when 50.10^6 human peripheral blood mononuclear cells were injected intraperitoneally, with or without BiP (100 μg), into a mouse and the cells were harvested from the peritoneum 11 days later; or (2) BiP (200 μg) was injected intravenously into a mouse and the spleens and lymph nodes removed 11 days later.
In each of three experiments, two/three mice were injected either with BiP treated human peripheral blood mononuclear cells (hPBMC) (50.10^6/mouse) and or untreated hPBMC. The mice were sacrificed 11 days later, the peritoneal cavity washed out and the cells collected for immunofluorescence and flow cytometric analysis. The cells were particularly stained for TH2 markers and intracellular anti-inflammatory cytokines.
SCID mice were given an intraperitoneal injection of human PBMC (50.106/mouse) in the presence or absence of BiP (100 μg/mouse) and sacrificed 11d later when the peritoneum was washed out with PBS and the remaining cells collected for analysis. Cells were examined for the intracellular presence of IL-4 or IFNγ and for cell surface molecules such as HLA-DR and CD86.

[2] = test system: indoleamine 2,3-dioxygenase (IDO); test: Intracellular indoleamine 2,3-dioxygenase in mature dendritic cells (flow cytometry); format: cell-based, human; conditions: mDC(BiP)
Protocol: Purified monocytes (>85% monocytes)(1.5.10^6/flask)(Corning Costar, High Wycombe, UK) were incubated in 5 ml of tissue culture medium (TCM)(RPMI 1640 medium (Sigma, Poole, UK) supplemented with 10% heat-inactivated foetal calf serum (FCS)(Life Technologies, Paisley, UK). iDC were generated using granulocyte macrophage—colony stimulating factor (GM-CSF) (1000 U/ml)(Novartis Research Institute, Vienna, Austria) and IL-4 (500 U/ml) (R&D Systems, Oxford, UK). Monocytes were cultured for 3 or 7 days with cytokines, either alone or in the presence of rhuBiP (20 μg/ml). Mature DC were generated by addition of 500 ng/ml lipopolysaccharide (LPS) for the final 2 days of culture.
Intracellular staining was carried out with fixed cells incubated with 1% paraformaldehyde in IF buffer for 5 minutes at room temperature. The cells were washed twice with IF buffer containing 0.3% saponin for permeabilization. […] Antibodies were added at the pre-determined optimal concentration for 20 mins and then the cells were washed twice with IF buffer and analysed. […] Cells were analysed on a FACScan cytometer using Cellquest software (Becton Dickinson, Oxford, UK). […]
Immunofluorescent staining was performed, as described previously (39), on DC harvested at day 7, T cells after 4 days co-culture with DC. […] Cells were analysed on a FACScan/FACScalibur cytometers using Cellquest software (BD, Oxford, UK).

[3] = test system: splenocytes and lymph node cells; test: Intravenous injection of BiP into DBA mice, splenocytes and lymph node cells analysed; format: in vivo, mouse
Protocol: as §1
Mice were sacrificed at the end of the experiment and the spleens and lymph nodes removed. The spleens and lymph nodes were then gently pushed through a fine mesh to produce a single cell suspension. The cells were then either set up in culture or stained as for human cells following the protocol below.
IF staining of mouse cells was as described for human cells above.
Mice were given a single dose of BiP and left for 11 days before they were sacrificed and their spleens and lymph nodes removed for analysis. The splenocytes and lymph node cells were pooled and used in immunofluorescence and flow cytometry studies. They were also set up in a simple recall antigen proliferation study to check that BiP had been successfully administered at time-point zero.
Cells were examined for: CD3, CD4, CD8, CD25, CD122, CCR4, intracellular CTLA-4 and cells actively producing IL-10 and interferon (IFN)γ.
Thus reduction of IFN (decreased IFN production) is an excellent marker of BiP function in vivo.

[4] = Example 4, hPBMC recovered from peritoneum after 11 days
[5] = BiP 200 μg/mouse i.v., 11 days, n=3

BiP: 78 kD endoplasmic reticulum chaperone protein as disclosed in WO 00/21995; recombinant human protein
IL-8 production (MFI) in culture supernatants (IL-8): suppressed IL-8 production
cells with intracellular IFNγ [1, 4]: 23.5±4%
cells with intracellular IL-4 [1, 4]: 16.2±0.5%
cells with intracellular IL-5 [1, 4]: 29±7%
intracellular IL-4 in CD4+ cells ([1]; Example 10, BiP 100 μg/mouse, 11 days, ex vivo PMA and ionomycin 3 h, n=5): 38.2±20%
surface HLA-DR on CD4 T cells ([1]; Example 10, BiP 100 μg/mouse, 11 days, n=5): 50±6.2%
cells containing intracellular IDO ([2]; mean ±standard deviation, n=9 (Example 10)): 14.1±7.1%
cells containing intracellular IDO ([2]; n=4 (Example 1)): 17.6±8.6%
intracellular CTLA-4 ([3]; BiP 200 μg/mouse i.v., 11 days): Increased intracellular CTLA-4
IL-10 producing cells [3, 5]: 6.1±1.3%
cells producing IFN gamma after stimulation by concanavalin A [3, 5]: 3.9±1.7%
% of CD8CD122+ cells ([3]; BiP 200 μg/mouse i.v., 11 days, pooled splenocytes and lymph node cells, n=3): 26.3±3.7%
IFN production by cells cultured overnight with con A ([3]; cells from mice given BiP 11 days previously (FIG. 5)): significant reduction in IFN production
